From ChEMBL document CHEMBL6078728 (Bioorg Med Chem, 2025)
Calls of active or inactive are those of the source. The rule behind the calls is not given here.

Legend:
[1] = Inhibition of NLRP3 inflammasome activation in LPS/ATP stimulated human THP-1 cells assessed as inhibition of IL-1beta production pretreated with compound for 15 mins followed by LPS and ATP addition and measured after 2 hrs by ELISA; format: cell-based
[2] = Drug concentration in male Sprague-Dawley rat brain at 10 mg/kg, ip measured after 1 hr by LC-MS/MS analysis; format: ADME, organism-based; details: read-out: Ct
[3] = Ratio of drug concentration in brain to plasma in male Sprague-Dawley rat at 10 mg/kg, ip measured after 1 hr by LC-MS/MS analysis; format: ADME, organism-based; details: brain and plasma, read-out: BPR
[4] = Drug concentration in male Sprague-Dawley rat plasma at 10 mg/kg, ip measured after 1 hr by LC-MS/MS analysis; format: ADME, organism-based
[5] = Inhibition of NLRP3 inflammasome activation in LPS primed mouse BMDM cells assessed as inhibition of IL-1beta production preincubated with compound for 1 hr followed by nigericin stimulation and measured after 1 hr by ELISA method; format: cell-based
[6] = molecular target: NACHT, LRR and PYD domains-containing protein 3 (Rattus norvegicus) (UniProt D4A523); details: wistar, dose <= 30.0 mg/kg, route po, time 30.0 min
[7] = Inhibition of NLRP3 inflammasome activation in alpha-synuclein pre-formed fibril stimulated human THP-1 cells assessed as inhibition of IL-1beta production preincubated with compound for 15 mins followed by alpha-synuclein pre-formed fibril addition and measured after 24 hrs by ELISA; format: cell-based
[8] = Inhibition of NLRP3 inflammasome activation in LPS stimulated human THP-1 cells assessed as inhibition of TNF-alpha production pretreated with compound for 15 mins followed by LPS and ATP addition and measured after 2 hrs by ELISA; format: cell-based
[9] = Ratio of drug concentration in brain to plasma in male Sprague-Dawley rat at 10 mg/kg, po measured after 1 hr by LC-MS/MS analysis; format: ADME, organism-based; details: brain and plasma, read-out: BPR
[10] = molecular target: NACHT, LRR and PYD domains-containing protein 3 (Rattus norvegicus) (UniProt D4A523); assay: In vivo inhibition of NLRP3 activation in LPS-induced male wistar rat model assessed as inhibition of IL-1 beta production in CSF at 0.3 mg/kg, po measured after 30 mins by Western blotting analysis; format: functional, organism-based
[11] = tested on: Mus musculus; assay: Improvement of motor dysfunction in pathogenic alpha-synuclein induced male C57BL/6J mouse assessed as reduction in number of falls at 10 mg/kg, po administered once a day for 4 weeks and measured 1 hr after last administration by hanging wire test; format: functional, organism-based
[12] = tested on: Mus musculus; assay: Improvement of motor dysfunction in pathogenic alpha-synuclein induced male C57BL/6J mouse assessed as reduction in number of falls at 1 mg/kg, po administered once a day for 4 weeks and measured 1 hr after last administration by hanging wire test; format: functional, organism-based
[13] = molecular target: NACHT, LRR and PYD domains-containing protein 3 (Rattus norvegicus) (UniProt D4A523); assay: In vivo inhibition of NLRP3 activation in LPS-induced male wistar rat model assessed as inhibition of IL-1 beta production in CSF at 3 mg/kg, po measured after 30 mins by Western blotting analysis; format: functional, organism-based
[14] = molecular target: NACHT, LRR and PYD domains-containing protein 3 (Rattus norvegicus) (UniProt D4A523); assay: In vivo inhibition of NLRP3 activation in LPS-induced male wistar rat model assessed as inhibition of IL-1 beta production in CSF at 1 mg/kg, po measured after 30 mins by Western blotting analysis; format: functional, organism-based
[15] = tested on: THP-1; assay: Antiinflammatory activity against LPS/ATP stimulated human THP-1 cells assessed as ASC speck formation by DAPI staining based cell analyzer; format: functional
[16] = Intrinsic clearance in human liver microsomes at 0.2 uM in presence of NADPH incubated for 30 mins by LC-MS/MS analysis; format: ADME, Microsome; details: read-out: CLH
[17] = Intrinsic clearance in rat liver microsomes at 0.2 uM in presence of NADPH incubated for 30 mins by LC-MS/MS analysis; format: ADME, Microsome; details: read-out: CLH
[18] = Drug concentration in male Sprague-Dawley rat plasma at 5 mg/kg, ip measured after 1 hr by LC-MS/MS analysis; format: ADME, organism-based
[19] = Ratio of drug concentration in brain to plasma in male Sprague-Dawley rat at 5 mg/kg, ip measured after 1 hr by LC-MS/MS analysis; format: ADME, organism-based; details: brain and plasma, read-out: BPR
[20] = Drug concentration in male Sprague-Dawley rat brain at 5 mg/kg, ip measured after 1 hr by LC-MS/MS analysis; format: ADME, organism-based; details: read-out: Ct

Chain of NACHT, LRR and PYD domains-containing protein 3 (Rattus norvegicus) (D4A523 whole entry, the tested form may be a part): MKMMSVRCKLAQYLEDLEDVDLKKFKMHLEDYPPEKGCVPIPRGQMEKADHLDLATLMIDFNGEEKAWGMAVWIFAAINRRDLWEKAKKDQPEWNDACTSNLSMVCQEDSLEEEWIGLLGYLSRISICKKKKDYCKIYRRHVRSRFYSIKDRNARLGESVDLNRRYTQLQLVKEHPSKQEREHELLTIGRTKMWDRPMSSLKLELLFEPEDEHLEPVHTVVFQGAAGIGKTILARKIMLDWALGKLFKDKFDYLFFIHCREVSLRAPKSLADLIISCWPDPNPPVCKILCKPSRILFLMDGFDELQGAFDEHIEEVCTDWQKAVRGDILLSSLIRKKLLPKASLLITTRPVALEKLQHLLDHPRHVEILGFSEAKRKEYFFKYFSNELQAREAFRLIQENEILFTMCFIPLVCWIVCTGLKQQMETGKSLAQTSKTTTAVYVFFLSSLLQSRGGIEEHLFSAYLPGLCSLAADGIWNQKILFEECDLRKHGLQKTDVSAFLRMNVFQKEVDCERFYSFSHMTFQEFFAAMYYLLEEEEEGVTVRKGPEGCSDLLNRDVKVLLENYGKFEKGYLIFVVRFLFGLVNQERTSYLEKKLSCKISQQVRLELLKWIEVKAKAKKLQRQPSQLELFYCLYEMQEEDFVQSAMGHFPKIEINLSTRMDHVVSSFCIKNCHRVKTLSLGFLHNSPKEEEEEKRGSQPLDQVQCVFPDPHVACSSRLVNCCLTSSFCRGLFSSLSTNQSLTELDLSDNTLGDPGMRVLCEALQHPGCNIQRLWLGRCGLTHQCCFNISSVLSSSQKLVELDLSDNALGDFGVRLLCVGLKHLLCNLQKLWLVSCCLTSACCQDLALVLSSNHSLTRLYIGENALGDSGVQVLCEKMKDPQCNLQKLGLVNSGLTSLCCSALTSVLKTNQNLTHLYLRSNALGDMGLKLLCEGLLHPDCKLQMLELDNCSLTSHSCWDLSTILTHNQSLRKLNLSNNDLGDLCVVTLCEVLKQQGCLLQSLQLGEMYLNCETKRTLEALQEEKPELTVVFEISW

Structure (SMILES)	IC50 [1]	other results
Cc1c(N[C@H]2CCC[C@@H]2O)nnc(-c2ccc(C(F)(F)F)cc2O)c1C	650 nM	–
Cc1c(N[C@H]2CCC[C@H]2O)nnc(-c2ccc(C(F)(F)F)cc2O)c1C	27 nM	–
Cc1c(NC[C@@H](C)O)nnc(-c2ccc(C(F)(F)F)cc2O)c1C	14 nM	–
C[C@H](O)CNc1nnc(-c2ccc(C(F)(F)F)cc2)c2ccccc12	230 nM	–
Cc1c(NC[C@@H](C)O)nnc(-c2ccc(C(F)(F)F)cc2C(F)F)c1C	590 nM	–
C[C@@H](O)CNc1ccc(-c2ccc(C(F)(F)F)cc2C(F)(F)F)nn1	150 nM	–
CC(C)(O)c1coc(S(=O)(=O)NC(=O)Nc2c3c(cc4c2CCC4)CCC3)c1	–	concentration at 1 h [2]: 23.1 ng/g; Kp at 1 h [3]: 0.01; concentration at 1 h [4]: 2320 ng/mL; IC50 [5]: 7.5 nM; inhibition [6]: inactive
CC(CCO)Nc1nnc(-c2ccc(C(F)(F)F)cc2)c2ccccc12 (stereo not given)	3500 nM	–
Cc1c(N[C@@H]2CCCC[C@H]2O)nnc(-c2ccc(C(F)(F)F)cc2O)c1C	–	IC50 [7]: 6.3 nM; IC50 [8]: > 10000 nM; Kp at 1 h [9]: 0.94; inhibition [10]: Active; Activity [11]: Active; Activity [12]: Active; inhibition [13]: Active; inhibition [14]: Active; IC50 [15]: 5.7 nM; microsomal CLint at 0.2 µM [16]: < 20 µL/min/mg; microsomal CLint at 0.2 µM [17]: < 20 µL/min/mg
Cc1cc(-c2ccc(C(F)(F)F)cc2C(F)(F)F)nnc1NC[C@@H](C)O	90 nM	–
Cc1c(N[C@@H]2CCC[C@H]2O)nnc(-c2ccc(C(F)(F)F)cc2O)c1C	28 nM	–
C[C@@H](O)CNc1nnc(-c2ccc(C(F)(F)F)cc2)c2ccccc12	140 nM	–
Cc1cc(NC[C@@H](C)O)nnc1-c1ccc(C(F)(F)F)cc1C(F)(F)F	200 nM	–
Cc1cc(NC[C@@H](C)O)nnc1-c1ccc(C(F)(F)F)cc1O	17 nM	–
Cc1c(NC[C@@H](C)O)nnc(-c2ccc(C(F)(F)F)cc2C(F)(F)F)c1C	210 nM	–
Cc1cc(-c2ccc(C(F)(F)F)cc2O)nnc1NC[C@@H](C)O	160 nM	–

Now from value to compound, other results behind:

IC50 [1]	Structure (SMILES)	other results
57 nM	C[C@@H](O)CNc1nnc(-c2ccc(C(F)(F)F)cc2C(F)(F)F)c2ccccc12	–
510 nM	OCCCNc1nnc(-c2ccc(C(F)(F)F)cc2F)c2ccccc12	–
350 nM	OCCCNc1nnc(-c2ccc(C(F)(F)F)cc2Cl)c2ccccc12	–
490 nM	Cc1cc(C(F)(F)F)ccc1-c1nnc(NCCCO)c2ccccc12	–
1700 nM	COCCCNc1nnc(-c2ccc(C(F)(F)F)cc2)c2ccccc12	–
1200 nM	CC(O)CCNc1nnc(-c2ccc(C(F)(F)F)cc2)c2ccccc12 (stereo not given)	–
5200 nM	OCCCNc1nnc(-c2ccccc2C(F)(F)F)c2ccccc12	–
370 nM	OCCCNc1nnc(-c2ccc(C(F)(F)F)cc2)c2ccccc12	–
1000 nM	CC(C)(CO)CNc1nnc(-c2ccc(C(F)(F)F)cc2)c2ccccc12	–
17000 nM	OCCCNc1nnc(-c2cccc(C(F)(F)F)c2)c2ccccc12	–
230 nM	CC(CO)CNc1nnc(-c2ccc(C(F)(F)F)cc2)c2ccccc12 (stereo not given)	–
610 nM	OCCNc1nnc(-c2ccc(C(F)(F)F)cc2)c2ccccc12	–
110 nM	OCCCNc1nnc(-c2ccc(C(F)(F)F)cc2C(F)(F)F)c2ccccc12	–
2000 nM	Cc1ccc(-c2nnc(NCCCO)c3ccccc23)cc1	IC50 [8]: > 10000 nM; concentration at 1 h [18]: 360 ng/mL; IC50 [15]: 3100 nM; Kp at 1 h [19]: 0.33; concentration at 1 h [20]: 117 ng/g
980 nM	OCCCNc1nnc(-c2ccc(C(F)(F)F)c(F)c2)c2ccccc12	–
